Data from US5455356A, “Fungicidal 1-aryl-1-[α-(triazolyl)alkyl]-1-silacycloalkanes and their preparation methods” (priority 1993, dated 1995).
Read-outs that look alike come from different tables or passages of the source.

How the values were obtained:
Assay type in all cases: cell-based
Botritis cinerea = assay: In vitro mycelial/spore growth on potato-sucrose-agar, percent disease control (BC); settings: read-out: % controlled, BC
Experimental: (§1) The compounds of this invention were dissolved respectively in acetone in an amount equal to 10% of the final volume and then in purified water at the concentration of 100 ppm and 50 ppm.
(§2) Each of the solution was mixed with potato-sucrose-agar medium in 6" petri dish and one of the fungi was spotted at the center of the dish. The dish was incubated in growth room for several days. The percent disease control was derived from the radii of spore growth. The screening tests in vitro condition are well-known to those skilled in the art.
(§3) The following fungi were used for the screening.
10) Bo. ci.; Botritis cinerea

Botryosphaeri = assay: In vitro mycelial/spore growth on potato-sucrose-agar, percent disease control (BD); settings: read-out: % controlled, BD
Experimental: as §1, §2, §3
4) Bo. do (Ma); Botryosphaeri

Phytophthora capsisi = assay: In vitro mycelial/spore growth on potato-sucrose-agar, percent disease control (PC); settings: read-out: % controlled, PC
Experimental: as §1, §2, §3
2) Phy. ca.; Phytophthora capsisi

Pyricalaria oryzae = assay: In vitro mycelial/spore growth on potato-sucrose-agar, percent disease control (PO); settings: read-out: % controlled, PO
Experimental: as §1, §2, §3
6) Py. or.; Pyricalaria oryzae

GC = assay: In vitro mycelial/spore growth on potato-sucrose-agar, percent disease control (GC); settings: read-out: % controlled, GC; for inhibition of growth at 50 ppm: GC
Experimental: as §1, §2, §3

Rhizopus sp. = assay: In vitro mycelial/spore growth on potato-sucrose-agar, percent disease control (RS, second column); settings: read-out: % controlled, RS
Experimental: as §1, §2, §3
9) Rhi. sp.; Rhizopus sp.

Fusarium moniliforme = assay: In vitro mycelial/spore growth on potato-sucrose-agar, percent disease control (FM); settings: Fusarium verticillioides, read-out: % controlled, FM
Experimental: as §1, §2, §3
8) Fu. mo.; Fusarium moniliforme

Rhizoctonia solani = assay: In vitro mycelial/spore growth on potato-sucrose-agar, percent disease control (RS, first column); settings: read-out: % controlled, RS
Experimental: as §1, §2, §3
7) Rhi. so.; Rhizoctonia solani

| Structure (SMILES) | inhibition of growth at 50 ppm (Botritis cinerea) | inhibition of growth at 200 ppm (Botritis cinerea) | inhibition of growth at 50 ppm (Botryosphaeri) | inhibition of growth at 200 ppm (Botryosphaeri) | inhibition of growth at 50 ppm (Phytophthora capsisi) | inhibition of growth at 200 ppm (Phytophthora capsisi) | inhibition of growth at 50 ppm (Pyricalaria oryzae) | inhibition of growth at 200 ppm (Pyricalaria oryzae) | inhibition of growth at 50 ppm (GC) | inhibition of growth at 200 ppm (GC) | inhibition of growth at 50 ppm (Rhizopus sp.; 50 ppm, Rhizopus sp.) | inhibition of growth at 200 ppm (Rhizopus sp.; Rhizopus) | inhibition of growth at 50 ppm (Fusarium moniliforme; 50 ppm, Fusarium moniliforme) | inhibition of growth at 200 ppm (Fusarium moniliforme; Fusarium moniliforme) | inhibition of growth at 50 ppm (Rhizoctonia solani) | inhibition of growth at 200 ppm (Rhizoctonia solani) | inhibition of growth at 50 ppm (Rhizopus sp.; Rhizopus) | inhibition of growth at 50 ppm (Fusarium moniliforme) |
| --- | --- | --- | --- | --- | --- | --- | --- | --- | --- | --- | --- | --- | --- | --- | --- | --- | --- | --- |
| Fc1ccc([Si]2(Cn3cncn3)CCCC2)c(F)c1 [1-(2,4-difluorophenyl)-1-(1H-1,2,4-triazole-1-yl)methyl-1-silacyclopentane] | 100% | 100% | 100% | 100% | 32% | 85% | 100% | 100% | 100% | 100% | 63% | 72% | 100% | 100% | 76% | 100% | – | – |
| CC(n1cncn1)[Si]1(c2ccc(Cl)cc2)CCCCC1 (stereo not drawn) [1-(4-chlorophenyl)-1-[α-(1H-1,2,4-triazole-1-yl)ethyl]-1-silacyclohexane] | 100% | 100% | 100% | 100% | 75% | 100% | 100% | 100% | 100% | 100% | 77% | 90% | 100% | 100% | 100% | 100% | – | – |
| Fc1ccc([Si]2(Cn3cncn3)CCCCC2)c(F)c1 [1-(2,4-difluorophenyl)-1-(1H-1,2,4-triazole-1-yl)methyl-1-silacyclohexane] | 100% | 100% | 100% | 100% | 67% | 89% | 100% | 100% | 100% | 100% | 53% | 61% | 100% | 100% | 41% | 61% | – | – |
| CC(n1cncn1)[Si]1(c2ccc(-c3ccccc3)cc2)CCCCC1 (stereo not drawn) [1-(4-biphenyl)-1-[α-(1H-1,2,4-triazole-1-yl)ethyl]-1-silacyclohexane] | 100% | 100% | 100% | 100% | 92% | 100% | 100% | 100% | 100% | 100% | 79% | 89% | 100% | 100% | 100% | 100% | – | – |
| FC(F)(F)c1ccc([Si]2(Cn3cncn3)CCCCC2)cc1 [1-(4-trifluoromethyl)-1-(1H-1,2,4-triazole-1-yl)methyl-1-silacyclohexane] | 93% | 100% | 100% | 100% | 75% | 99% | 100% | 100% | 100% | 100% | 63% | 76% | 82% | 98% | 54% | 80% | – | – |
| COc1ccc([Si]2(Cn3cncn3)CCCC2)cc1 [1-(4-methoxyphenyl)-1-(1H-1,2,4-triazole-1-yl)methyl-1-silacyclopentane] | 72% | 77% | 75% | 79% | 41% | 100% | 100% | 100% | 100% | 100% | 64% | 75% | 70% | 80% | 74% | 100% | – | – |
| CCOc1ccc([Si]2(Cn3cncn3)CCCCC2)cc1 [1-(4-ethoxyphenyl)-1-(1H-1,2,4-triazole-1-yl)methyl-1-silacyclohexane] | 74% | 94% | 79% | 100% | 65% | 87% | 100% | 100% | 100% | 100% | 54% | 85% | 73% | 99% | 94% | 100% | – | – |
| CC(n1cncn1)[Si]1(c2ccc(Cl)cc2)CCCC1 (stereo not drawn) [1-(4-chlorophenyl)-1-[α-(1H-1,2,4-triazole-1-yl)ethyl]-1-silacyclopentane] | 100% | 100% | 100% | 100% | 30% | 100% | 100% | 100% | 100% | 100% | 42% | 60% | 100% | 100% | 100% | 100% | – | – |
| CC(n1cncn1)[Si]1(c2ccc(F)cc2F)CCCC1 (stereo not drawn) [1-(2,4-difluorophenyl)-1-[α-(1H-1,2,4-triazole-1-yl)ethyl]-1-silacyclopentane] | 100% | 100% | 100% | 100% | 45% | 94% | 100% | 100% | 100% | 100% | 78% | 87% | 100% | 100% | 79% | 100% | – | – |
| Fc1ccc([Si]2(Cn3cncn3)CCCC2)cc1 [1-(4-fluorophenyl)-1-(1H-1,2,4-triazole-1-yl)methyl-1-silacyclopentane] | 100% | 100% | 100% | 100% | 80% | 100% | 100% | 100% | 100% | 100% | – | 83% | – | 100% | 95% | 100% | 75% | 10% |
